BindingDB's records for doi:10.3109/14756366.2010.487485 (Huazhong University of Science and Technology, 2011)

What was measured:
[1] = target: Disintegrin and metalloproteinase domain-containing protein 17 (Homo sapiens, UniProt P78536); experiment: TACE Assay; settings: pH 9; 37 °C
Method: Then, 15ng TACE was added to buffer solution containing 140μMTACE peptide substrate at a final volume of 50 μL. After incubation for 15 min at 37°C, the reaction was stopped with 25 μL of 1% TFA. An aliquot of 25μL of internal standard solution was then added and the solution mixture was analysed by HPLC.

[2] = target: Matrix metalloproteinase-9 (Homo sapiens, UniProt P14780); experiment: MMP-9 Assay; settings: pH 7.5; 37 °C
Method: The MMP-9 assay was performed in 50 mM Tris-HCl buffer (pH 7.5, 10mM CaCl2, 150mM NaCl, 0.05% Brij-35). […] After incubation for 25 min at 37°C, the reaction was stopped with 25 μL of 1% TFA. An aliquot of 25 μL internal standard solution was then added and the solution mixture was analysed by HPLC. […] After incubation for 30 min at 37°C, 2 μL of 3 nM MMP-9 substrate was added.

Sequence of Disintegrin and metalloproteinase domain-containing protein 17 (P78536 whole entry, the tested form may be a part): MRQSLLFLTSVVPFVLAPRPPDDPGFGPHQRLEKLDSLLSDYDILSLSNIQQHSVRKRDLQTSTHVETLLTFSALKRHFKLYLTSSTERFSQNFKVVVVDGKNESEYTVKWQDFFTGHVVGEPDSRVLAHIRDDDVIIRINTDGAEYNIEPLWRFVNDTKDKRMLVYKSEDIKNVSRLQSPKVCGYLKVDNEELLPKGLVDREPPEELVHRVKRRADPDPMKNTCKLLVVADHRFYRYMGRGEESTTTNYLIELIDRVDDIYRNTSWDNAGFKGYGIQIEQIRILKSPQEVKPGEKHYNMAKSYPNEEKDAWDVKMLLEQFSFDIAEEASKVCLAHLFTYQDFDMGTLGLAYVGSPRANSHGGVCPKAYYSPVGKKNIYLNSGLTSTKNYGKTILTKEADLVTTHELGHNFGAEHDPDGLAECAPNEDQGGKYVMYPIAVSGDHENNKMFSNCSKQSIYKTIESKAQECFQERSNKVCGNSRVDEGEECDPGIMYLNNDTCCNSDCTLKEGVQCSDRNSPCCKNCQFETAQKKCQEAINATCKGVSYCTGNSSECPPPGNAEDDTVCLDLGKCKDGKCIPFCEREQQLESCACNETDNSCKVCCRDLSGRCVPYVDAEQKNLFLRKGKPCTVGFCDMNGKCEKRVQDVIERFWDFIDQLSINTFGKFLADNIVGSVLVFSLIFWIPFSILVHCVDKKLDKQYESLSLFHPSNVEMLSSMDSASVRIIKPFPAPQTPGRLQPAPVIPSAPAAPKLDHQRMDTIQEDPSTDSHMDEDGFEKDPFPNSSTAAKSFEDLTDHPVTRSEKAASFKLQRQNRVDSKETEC
Sequence of Matrix metalloproteinase-9 (P14780 whole entry): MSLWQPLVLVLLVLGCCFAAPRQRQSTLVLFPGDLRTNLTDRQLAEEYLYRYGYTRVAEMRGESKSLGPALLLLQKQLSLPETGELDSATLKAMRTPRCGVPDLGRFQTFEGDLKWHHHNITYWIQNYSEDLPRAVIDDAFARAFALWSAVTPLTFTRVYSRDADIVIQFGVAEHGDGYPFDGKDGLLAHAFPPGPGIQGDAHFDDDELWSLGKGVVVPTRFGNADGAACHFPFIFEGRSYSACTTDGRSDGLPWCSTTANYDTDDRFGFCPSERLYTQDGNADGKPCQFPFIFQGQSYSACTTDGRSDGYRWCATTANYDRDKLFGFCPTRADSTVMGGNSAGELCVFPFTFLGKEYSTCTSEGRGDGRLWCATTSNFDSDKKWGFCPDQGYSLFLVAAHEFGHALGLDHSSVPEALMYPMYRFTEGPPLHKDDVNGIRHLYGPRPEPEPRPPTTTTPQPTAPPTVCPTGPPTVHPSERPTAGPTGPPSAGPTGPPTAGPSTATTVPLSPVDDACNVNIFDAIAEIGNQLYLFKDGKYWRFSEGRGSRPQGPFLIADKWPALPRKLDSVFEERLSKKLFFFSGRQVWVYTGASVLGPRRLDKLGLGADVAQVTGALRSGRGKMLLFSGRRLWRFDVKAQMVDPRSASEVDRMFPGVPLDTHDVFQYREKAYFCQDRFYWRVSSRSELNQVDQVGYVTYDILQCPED

Row | IC50 [1] [nM] | IC50 [2] [nM] | SMILES
1 | 317 | – | CNC(=O)[C@H](Cc1c[nH]c2ccccc12)NC(=O)[C@@H](CC(=O)NO)CC(C)C [GM6001]
2 | 175 | 537 | O=C(Cc1cc2ccccc2oc1=O)NO [Inhibitor A]
